{"source": "patent US20250249110A1", "about": "“ANTIMICROBIAL PEPTIDE DERIVATIVE AND USE THEREOF” (SICHUAN UNIVERSITY, priority 2016, published 2025)", "key": {"[1]": {"assay": "Morphology under transmission electron microscopy", "type": "physicochemical", "conditions": "TEM", "method": "As the DP7 is positively charged, the DP7-C micelle formed by self-assembly is also positively charged in aqueous solution, showing its potential as a non-viral gene transmission vector, especially siRNA transmission vector. The morphology of DP7-C micelles formed by self-assembly and DP7-C/siRNA complexes is observed under a transmission electron microscopy (H-6009IV, Hitachi, Japan). First, 1 mg\\mL of micellar solution is diluted with distilled water and coated on a copper mesh, covered with nitrocellulose, then negatively stained with phosphotungstic acid, dried at room temperature and observed under an electron microscope. […] Under the electron microscope, the particle size of DP7-C micelles is about 60 nm, and the particle size of DP7-C micelle/siRNA complex is about 100 nm (see FIGS. 14A and 14B for the results)."}, "[2]": {"system": "Pseudomonas aeruginosa with fluorescence (PAO1-GFP)", "assay": "Abdominally infected zebrafish model", "type": "in vivo", "conditions": "DP7-C 1 mg/mL; green fluorescence at 3 h, 8 h, 18 h", "method": "Next, we established an abdominally infected zebrafish model through Pseudomonas aeruginosa with fluorescence (PAO1-GFP) to further verify the anti-infection effect of DP7-C.\nThe male and female AB wild zebrafish were mated according to the mating and breeding procedures. After spawning, the roe was collected, placed in an incubator at 28° C. and incubated in the seawater containing PTU. The seawater containing PTU was changed once a day. When zebrafish was incubated for 48 h, Pseudomonas aeruginosa with fluorescence (PAO1-GFP) diluted with DP7-C and normal saline was intraperitoneally injected, and photographs were taken at 3 h, 8 h and 18 h under a fluorescence microscope to observe the growth of PAO1-GFP in the abdomen of zebrafish."}, "[3]": {"assay": "Physical characteristics of DP7-C micelles (Malvin particle size meter, appearance)", "type": "physicochemical", "from_the_text": "We detected some physical characteristics such as particle size and Zeta potential of DP7-C micelles by the atomic force microscope and Malvin particle size meter. • 1 Atomic force microscope photography: prepare different concentrations of DP7-C solution, add to the mica sheets dropwise and dry naturally. Put the mica sheets coated with DP7-C on the atomic force microscope for photography. • 2 Detection of particle size and Zeta potential: dissolve DP7-C in Milliq water, determine particle size and Zeta potential by Malvin particle size meter, and detect each sample for four times to obtain their average value. • 3 Appearance and solution state of DP7-C: observe the appearance of MilliQ water, DP7-C water solution and lyophilized powder, and take photos with a camera; wherein, a is MilliQ water, b is DP7-C dissolved in aqueous solution, C is the state of DP7-C lyophilized powder after redissolving, and d is the shape and color of DP7-C lyophilized powder."}, "red blood cells": {"system": "red blood cells", "assay": "Hemolysis test in vitro", "type": "cell-based, human (healthy volunteers)", "method": "In the hemolysis test, DP7 and DP7-C at the same concentration were detected for the hemolysis of red blood cells. • 1. Take the blood of healthy volunteers and put into an anticoagulant tube and gently mix. • 2. Take out the anticoagulant, add isometric physiological saline, mix slowly and evenly, centrifuge at 400×g for 10 min, and discard the supernatant. • 3. Slowly mix the red blood cells and wash with PBS, centrifuge at 400×g for 10 min, discard the supernatant, and wash the cell precipitate with PBS for three times. • 4. Dilute with PBS to obtain 20% (v/v) red blood cell solution, which can be used immediately or stored at 4° C. for about 2 weeks (without hemolysis). • 5. Dilute the drug into a series of concentration gradients with PBS, add 100 μL of drug into a 96-well plate, take 100 μL of 2% Twain 20 as the positive control, add 100 μL of PBS to the negative control. Repeat the process 3 times for each concentration of drug. • 6. Dilute 20% (v/v) of red blood cell solution with PBS according to the volume ratio of 1:20, mix evenly and add to a 96-well plate, with the drug concentration of 100, 200, 400, 600, 800, 1000, 1200, 1600 μg/mL respectively, and incubate at 37° C. for 1 h. • 7. Incubate the mixture of drugs and red blood cells, centrifuge at 900×g for 10 min, add 160 μL of the supernatant to a new 96-well plate, and read the absorbance value at OD 450 nm. • 8. According to the absorbance value of A450, calculate the percentage of hemolysis corresponding to each concentration of drugs.\nThe calculation formula of the percentage of hemolysis is: […]"}, "splenic lymphocytes": {"system": "splenic lymphocytes", "assay": "Cellular immune response of splenic lymphocytes (intracellular cytokine flow cytometry)", "type": "cell-based, mouse", "conditions": "spleen of immunized mice, OVA restimulation", "from_the_text": "[…]"}, "[4]": {"conditions": "Milliq water, Malvin particle size meter"}}, "note": "Where a SMILES comes first, the peptide text is derived from it. The star is where a group is joined. Succinyl(4-O-cholesteryl) = CC(C)CCC[C@@H](C)[C@H]1CC[C@H]2[C@@H]3CC=C4C[C@@H](OC(=O)CCC(=O)*)CC[C@]4(C)[C@H]3CC[C@]12C", "data": [{"smiles": "CC[C@H](C)[C@H](NC(=O)[C@H](CCCNC(=N)N)NC(=O)[C@H](Cc1c[nH]c2ccccc12)NC(=O)[C@H](CCC(N)=O)NC(=O)[C@@H](NC(=O)CCC(=O)O[C@H]1CC[C@@]2(C)C(=CC[C@H]3[C@@H]4CC[C@H]([C@H](C)CCCC(C)C)[C@@]4(C)CC[C@@H]32)C1)C(C)C)C(=O)N[C@@H](CCCNC(=N)N)C(=O)N[C@H](C(=O)N[C@@H](C)C(=O)N[C@H](C(=O)N[C@H](C(=O)N[C@@H](CCCNC(=N)N)C(=O)N[C@@H](CCCCN)C(N)=O)[C@@H](C)CC)C(C)C)C(C)C", "note": "[DP7-C, Chol-suc-VQWRIRVAVIRK-NH2] ({Succinyl(4-O-cholesteryl)}-VQWRIRVAVIRK-NH2)", "values": [{"measurement": "particle size under the electron microscope", "setting": "[1]", "value": "about 60 nm"}, {"measurement": "growth rate of PAO1-GFP in zebrafish abdominal cavity", "setting": "[2]", "value": "much lower than that of NS group"}, {"measurement": "Zeta potential", "setting": "[3]; [4]", "value": "about 28.8±0.27 mV"}, {"measurement": "particle size", "setting": "[3]; [4]", "value": "about 24.3±1.5 nm"}, {"measurement": "solubility in water", "setting": "[3]; lyophilized powder", "value": "soluble in water"}, {"measurement": "appearance of hemolysis test", "setting": "red blood cells; FIG. 5B", "value": "red blood cells are not lysed"}, {"measurement": "degree of lysis to red blood cells", "setting": "red blood cells; drug concentration more than 0.8 mg/mL, 37° C. 1 h", "value": "much less than DP7"}, {"measurement": "percentage of CD4+/IFN-γ+, CD8+/IFN-γ+ and CD4+/IL-17A+ cells", "setting": "splenic lymphocytes", "value": "increased"}]}]}
